Results as given in patent US10899787B2, “Cytarabine prodrug nucleoside cyclic phosphate compound based on liverspecific delivery and use” (ZHEJIANG PALO ALTO PHARMACEUTICALS, INC., priority 2017, dated 2021).

Molecular target: T1, Recombinant human CYP3A4 enzyme (Homo sapiens, UniProt P08684)
T1 construct: purchased BD company lot number 3100772
Test: Evaluation of recombinant human CYP3A4 metabolism in vitro
Type: in vitro ADME
Settings: for Elimination Rate in vitro: recombinant human CYP3A4 enzyme, test compound 100 nM, NADPH 2 mM, pH 7.4, samples at 1, 5, 10, 20, 30 min; for conversion rate relative to that of PA4102: recombinant human CYP3A4 enzyme in vitro, ratio to PA4102 (Table 4)
Description: Example 12 Evaluation of Recombinant Human CYP3A4 Metabolism In Vitro
Recombinant human CYP3A4 enzyme was purchased from BD company, lot number 3100772.
Test compounds PA4101, PA4102, PA4103, PA4104, PA4105, PA4106, PA4107, PA4108, PA4109, PA4110 and PA4111 were synthesized by Zhejiang Palo Alto Pharmaceuticals, Inc., and dissolved in methanol (from Sinopharm Chemical Reagent Co., Ltd.) to prepare a storage solution of a concentration of 100 μM.
Enzymatic reaction was carried out in 100 mM KH2PO4 buffer solution (pH 7.4), the concentration of the test compounds was 100 nM, the concentration of human liver microsomes was 0.1 nmol/ml, and NADPH concentration was 2 mM. The reaction was initiated by NADPH finally added, and after reaction for 1, 5, 10, 20, 30 min in a constant-temperature shaking water bath kettle, samples were taken, and 1.5 times of volume of methanol was immediately added to terminate the reaction.
3) Sample Processing and Analysis Method
The centrifugation was carried out for 20 minutes at a maximum speed of 13,600 rpm using an Eppendorf tabletop centrifuge. Supernatant was taken, and after being blow-dried by a nitrogen blower, the supernatant was re-dissolved into a mobile phase A (0.1% formic acid v/v aqueous solution).
Analytical column: Waters, Acquity UPLC HSS T3 column • Flow rate: 0.5 ml/min • Column temperature: 45° C.
III Mass Spectrometry Condition
An ion source was an electrospray ionization source (Turbo Ionspray); a positive ion mode; a capillary voltage was 3.0 kV; a temperature was 500° C.; a desolventizing airflow was 1000 L/h; and scan time, cone voltage, collision energy and ion response for quantitative analysis are shown in the following table (Table 3): […]

T1 sequence (P08684 whole entry): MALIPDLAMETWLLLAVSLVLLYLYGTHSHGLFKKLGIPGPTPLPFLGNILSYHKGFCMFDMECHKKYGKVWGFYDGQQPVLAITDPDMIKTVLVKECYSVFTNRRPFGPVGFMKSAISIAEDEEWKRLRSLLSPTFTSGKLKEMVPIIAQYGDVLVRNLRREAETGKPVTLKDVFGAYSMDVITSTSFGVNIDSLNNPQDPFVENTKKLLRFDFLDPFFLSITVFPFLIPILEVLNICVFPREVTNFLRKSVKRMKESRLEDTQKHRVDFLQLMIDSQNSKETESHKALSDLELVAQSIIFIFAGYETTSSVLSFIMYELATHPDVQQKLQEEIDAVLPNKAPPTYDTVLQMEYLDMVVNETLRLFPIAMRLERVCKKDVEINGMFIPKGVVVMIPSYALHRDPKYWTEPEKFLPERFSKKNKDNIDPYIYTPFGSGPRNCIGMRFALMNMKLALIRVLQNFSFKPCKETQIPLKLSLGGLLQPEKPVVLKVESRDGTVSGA

| Elimination Rate in vitro [ml/min/gprot] | conversion rate relative to that of PA4102 | Compound |
| --- | --- | --- |
| 2.93 |  | Nc1ccn([C@@H]2O[C@H](COP3(=O)OCC[C@H](c4cc(F)cc(F)c4)O3)[C@@H](O)[C@@H]2O)c(=O)n1 (some centres unmarked) [PA4104] |
| 14.9 |  | Nc1ccn([C@@H]2O[C@H](COP3(=O)OCC[C@H](c4ccc(Cl)c(F)c4)O3)[C@@H](O)[C@@H]2O)c(=O)n1 (some centres unmarked) [PA4106] |
| 23.6 | ~7.24 times | Nc1ccn([C@@H]2O[C@H](COP3(=O)OCC[C@H](c4cc(F)ccc4Cl)O3)[C@@H](O)[C@@H]2O)c(=O)n1 (some centres unmarked) [PA4108] |
| 5.79 |  | Nc1ccn([C@@H]2O[C@H](COP3(=O)OCC[C@H](c4ccc(F)c(Cl)c4)O3)[C@@H](O)[C@@H]2O)c(=O)n1 (some centres unmarked) [PA4105] |
| 3.26 |  | Nc1ccn([C@@H]2O[C@H](COP3(=O)OCC[C@H](c4ccncc4)O3)[C@@H](O)[C@@H]2O)c(=O)n1 (some centres unmarked) [PA4102, reference compound] |
| 23.1 |  | Nc1ccn([C@@H]2O[C@H](COP3(=O)OCC[C@H](c4cc(Cl)cc(Cl)c4)O3)[C@@H](O)[C@@H]2O)c(=O)n1 (some centres unmarked) [PA4103] |
| 9.55 |  | Nc1ccn([C@@H]2O[C@H](COP3(=O)OCC[C@H](c4cccc(F)c4F)O3)[C@@H](O)[C@@H]2O)c(=O)n1 (some centres unmarked) [PA4111] |
| 8.37 |  | Nc1ccn([C@@H]2O[C@H](COP3(=O)OCC[C@H](c4cc(F)ccc4F)O3)[C@@H](O)[C@@H]2O)c(=O)n1 (some centres unmarked) [PA4110] |
| 67.3 | about 20.6 times | Nc1ccn([C@@H]2O[C@H](COP3(=O)OCC[C@H](c4cc(Cl)ccc4Cl)O3)[C@@H](O)[C@@H]2O)c(=O)n1 (some centres unmarked) [PA4109] |
| 8.28 |  | Nc1ccn([C@@H]2O[C@H](COP3(=O)OCC[C@H](c4cccc(Cl)c4F)O3)[C@@H](O)[C@@H]2O)c(=O)n1 (some centres unmarked) [PA4107] |
| 35.0 | ~10.7 times | Nc1ccn([C@@H]2O[C@H](COP3(=O)OCC[C@H](c4cc(Cl)ccc4F)O3)[C@@H](O)[C@@H]2O)c(=O)n1 (some centres unmarked) [PA4101] |
